From ChEMBL document CHEMBL4229366, “Synthesis and evaluation of novel coumarin-oxime ethers as potential anti-tubercular agents: Their DNA cleavage ability and BSA interaction study” (Eur J Med Chem, 2018)
≈ marks a conversion by molar mass, not a printed value. Calls of active or inactive are those of the source. The calls are words filed in the database; no cut-off is given here.

Key:
[1] = system: Mycobacterium tuberculosis; experiment: Antitubercular activity against Mycobacterium tuberculosis H37Rv ATCC 27294 at 6.25 ug/ml after 5 days by MABA method; type: functional; conditions: H37Rv ATCC 27294, 120 h, read-out: GI
[2] = system: Mycobacterium tuberculosis; experiment: Antitubercular activity against Mycobacterium tuberculosis H37Rv ATCC 27294 after 5 days by MABA method; type: functional; conditions: H37Rv ATCC 27294, 120 h
[3] = Dissociation constant, pKa of the compound by potentiometric titration method; type: physicochemical
[4] = Cytotoxicity against African green monkey Vero cells assessed as cell survival at 3.9 ug/ml after 72 hrs by MTS-PMS assay; type: cell-based; conditions: chlorocebus sabaeus, read-out: Survival
[5] = Stability of the compound at pH 4.4 to 8.6 by electronic absorption spectroscopic analysis; type: physicochemical; conditions: buffer
[6] = system: Calf thymus DNA; experiment: Induction of calf thymus DNA cleavage at 5 uM by ethidium bromide based agarose gel electrophoresis method; type: nucleic-acid assay; conditions: Bos taurus
[7] = Cytotoxicity against African green monkey Vero cells assessed as cell survival at 0.9 ug/ml after 72 hrs by MTS-PMS assay; type: cell-based; conditions: chlorocebus sabaeus, read-out: Survival
[8] = Cytotoxicity against African green monkey Vero cells assessed as cell survival at 31.2 ug/ml after 72 hrs by MTS-PMS assay; type: cell-based; conditions: chlorocebus sabaeus, read-out: Survival
[9] = Cytotoxicity against African green monkey Vero cells assessed as cell survival at 1.9 ug/ml after 72 hrs by MTS-PMS assay; type: cell-based; conditions: chlorocebus sabaeus, read-out: Survival
[10] = Cytotoxicity against African green monkey Vero cells assessed as cell survival at 0.2 ug/ml after 72 hrs by MTS-PMS assay; type: cell-based; conditions: chlorocebus sabaeus, read-out: Survival
[11] = Cytotoxicity against African green monkey Vero cells assessed as cell survival at 0.4 ug/ml after 72 hrs by MTS-PMS assay; type: cell-based; conditions: chlorocebus sabaeus, read-out: Survival
[12] = Stability of the compound at pH 4.4 to 8.2 by electronic absorption spectroscopic analysis; type: physicochemical; conditions: buffer
[13] = target: T1, Albumin (Bos taurus, UniProt P02769); experiment: Binding affinity to bovine serum albumin in pH 7.4 phosphate buffer at 27 degC assessed as association constant by UV-vis spectroscopic analysis; type: ADME; conditions: cattle, isolated protein
[14] = target: T1, Albumin; experiment: Binding affinity to bovine serum albumin in pH 7.4 phosphate buffer at 27 degC assessed as Gibbs free energy change by UV-vis spectroscopic analysis; type: ADME; conditions: cattle, isolated protein
[15] = target: T1, Albumin; experiment: Binding affinity to bovine serum albumin assessed as Stern-Volmer quenching constant in phosphate buffer of pH 7.4 by fluorescence spectroscopic analysis; type: ADME; conditions: cattle, isolated protein
[16] = target: T1, Albumin; experiment: Binding affinity to bovine serum albumin assessed as quenching constant in phosphate buffer of pH 7.4 by fluorescence spectroscopic analysis; type: ADME; conditions: cattle, isolated protein
[17] = target: T1, Albumin; experiment: Binding affinity to bovine serum albumin assessed as association constant in phosphate buffer of pH 7.4 by fluorescence spectroscopic analysis; type: ADME; conditions: cattle, isolated protein
[18] = target: T1, Albumin; experiment: Binding affinity to bovine serum albumin in pH 7.4 phosphate buffer at 27 degC by UV-vis spectroscopic analysis; type: ADME; conditions: cattle, isolated protein

T1 sequence (P02769 whole entry): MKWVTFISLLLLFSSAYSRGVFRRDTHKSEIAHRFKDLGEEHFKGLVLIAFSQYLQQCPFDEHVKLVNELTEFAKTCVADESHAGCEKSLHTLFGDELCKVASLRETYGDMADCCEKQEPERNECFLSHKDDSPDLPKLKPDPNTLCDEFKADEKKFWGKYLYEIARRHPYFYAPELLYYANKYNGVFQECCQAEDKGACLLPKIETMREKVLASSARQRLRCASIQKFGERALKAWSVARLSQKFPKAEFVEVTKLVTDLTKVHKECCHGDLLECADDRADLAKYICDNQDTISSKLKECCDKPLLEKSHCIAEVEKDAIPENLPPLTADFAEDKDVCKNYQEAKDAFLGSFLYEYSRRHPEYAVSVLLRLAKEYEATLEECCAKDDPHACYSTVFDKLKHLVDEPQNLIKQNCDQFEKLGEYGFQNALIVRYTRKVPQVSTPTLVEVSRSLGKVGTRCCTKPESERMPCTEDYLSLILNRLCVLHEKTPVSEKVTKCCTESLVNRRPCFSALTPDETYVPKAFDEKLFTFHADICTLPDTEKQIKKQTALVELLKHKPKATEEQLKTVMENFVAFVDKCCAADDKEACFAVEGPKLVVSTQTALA

CC(=O)/C(C)=N/OCc1cc(=O)oc2ccc(C)cc12
inhibition of growth at 6.25 µg/mL [1]: 92%
MIC [2]: 0.39 µg/mL (≈ 1.43 µM)
pKa [3]: 5.7
viability at 72 h, 3.9 ug/ml [4]: 72%
Stability [5]: Stable
Activity [6]: Active

O=c1cc(CSC2=NCCS2)c2cc(Cl)ccc2o1
MIC [2]: 0.09 µg/mL (≈ 0.289 µM)

CC(=O)/C(C)=N/OCc1cc(=O)oc2c(C)c(C)ccc12
inhibition of growth at 6.25 µg/mL [1]: 95%
MIC [2]: 0.09 µg/mL (≈ 0.313 µM)
pKa [3]: 5.5
viability at 72 h, 0.9 ug/ml [7]: 84%
Stability [5]: Stable
Activity [6]: Active

CC(=O)/C(C)=N/OCc1cc(=O)oc2ccc3ccccc3c12
inhibition of growth at 6.25 µg/mL [1]: 90%
MIC [2]: 3.12 µg/mL (≈ 10.1 µM)
pKa [3]: 5.6
viability at 72 h, 31.2 ug/ml [8]: 67%
Activity [6]: Active

CC(=O)/C(C)=N/OCc1cc(=O)oc2ccc(Cl)cc12
inhibition of growth at 6.25 µg/mL [1]: 26%
pKa [3]: 5.4
Activity [6]: Active

COc1ccc2oc(=O)cc(CO/N=C(\C)C(C)=O)c2c1
inhibition of growth at 6.25 µg/mL [1]: 94%
MIC [2]: 0.19 µg/mL (≈ 0.657 µM)
pKa [3]: 5.8
viability at 72 h, 1.9 ug/ml [9]: 78%
Stability [5]: Stable
Activity [6]: Active

NNC(=O)c1ccncc1 [ISONIAZID]
inhibition of growth at 6.25 µg/mL [1]: 100%
MIC [2]: 0.02 µg/mL (≈ 0.146 µM)
pKa [3]: 1.8 to 9.5
viability at 72 h, 0.2 ug/ml [10]: 98%

CC(=O)/C(C)=N/OCc1cc(=O)oc2cc(C)cc(C)c12
inhibition of growth at 6.25 µg/mL [1]: 97%
MIC [2]: 0.04 µg/mL (≈ 0.139 µM)
pKa [3]: 5.5
viability at 72 h, 0.4 ug/ml [11]: 89%
Stability [12]: Stable
Ka [13]: 1.24 ×10⁴ L/mol
deltaG [14]: -5.619 kcal/mol
KSV [15]: 6.19 ×10⁴ /mol
Kq [16]: 1.07 ×10¹³ /mol/s
Ka [17]: 1.37 ×10⁴ L/mol
Activity [6]: Active
Activity [18]: Dose-dependent effect

CC(=O)/C(C)=N/OCc1cc(=O)oc2c1ccc1ccccc12
inhibition of growth at 6.25 µg/mL [1]: 87%
pKa [3]: 5.6
Activity [6]: inactive

CC(=O)/C(C)=N/OCc1cc(=O)oc2cc(C)ccc12
inhibition of growth at 6.25 µg/mL [1]: 91%
MIC [2]: 0.39 µg/mL (≈ 1.43 µM)
pKa [3]: 5.5
viability at 72 h, 3.9 ug/ml [4]: 59%
Activity [6]: inactive

CC(=O)/C(C)=N/OCc1cc(=O)oc2ccc(Br)cc12
inhibition of growth at 6.25 µg/mL [1]: 81%
pKa [3]: 5.4
Activity [6]: Active

CC(=O)/C(C)=N/OCc1cc(=O)oc2cc(Cl)ccc12
inhibition of growth at 6.25 µg/mL [1]: 21%
pKa [3]: 5.4
Activity [6]: inactive
